What was measured:
[1] = tested on: sperm cells; assay: Toxicity of SYBR-14 staining to sperm cells (decrease in live sperm cells over time); format: cell-based
[2] = tested on: bull sperm; assay: Flow cytometric (FACSCount) determination of sperm viability over staining time in bull ejaculates; format: cell-based; settings: FACSCount blue laser (488 nm); SYBR-14 50 nM with PI 12 μM; replicates at 4 and 6 min staining, room temperature
Description: A two-step dilution is necessary for the flow cytometric analyses. First, the sample is diluted 250× in a PBS medium containing 0.1% BSA, (NUNC Intermed Cat# 3478880, Lifetechnologies, Roskilde, Denmark), and second a 20 μl sample is transferred to a Sperm Count tube containing approximately 100,000 beads using reverse manual pipetting. The dyes were added to the Sperm Count tubes less than 12 hours before using the tubes in the analysing procedure. As mentioned above, two different flow cytometers were used, one being a FACSCount equipped with a green (543 nm) laser and the second being a FACSCount equipped with a blue (488 nm) laser.
To each Sperm Count tube to be analysed in the first FACSCount (543 nm), 2 μl of MPR71292 and 2 μl of EHD-2 were added to provide final concentrations of 100 nM and 5 μM, respectively.
To each Sperm Count tube to be analysed in the second FACSCount (488 nm), 5 μl of SYBR-14 and 5 μl of PI were added to provide for final concentrations of 50 nM and 12 μM, respectively.
Prior to opening the Sperm Count tubes, the tubes were whirlmixed for 3 sec in an upside-down position and for 3 sec in a normal position. Whirlmixing were repeated for two sec after addition of the sperm and before each analysis. […] After 4 min, the first replicates were analysed simultaneously on the two flow cytometers and the second replicates were analysed after a 6 min staining period. […]

Substance: SYBR-14
- decrease in the amount of live sperm cells ([1]; SYBR-14 below standard concentrations (25 to 75 nanomolar, about 50 nanomolar)): no decrease
- decrease in the amount of live sperm cells ([1]; SYBR-14 concentration of 100 nM): 0.6 % pr minute
- toxicity to spermatozoa ([1]; standard concentrations (100 nM), staining time 10 to 15 minutes): slightly toxic
- decrease in sperm viability over time [2]: −0.15±0.07 %/min

Reference: US7070917B1, “Determination of sperm concentration and viability for artificial insemination” (priority 2000, dated 2006)
